Measurements reported in PMC6917776, “Discovery of a chemical probe for PRDM9” (Nature Communications, 2019).
“And” between values parts separate entries of the source, which are not always exact repeats. Identical values can stand only once.

How the values were obtained:
[1] = test system: NanoLuc-tagged PRDM9 (residues 135–285); assay: NanoLuciferase thermal shift assay (NALTSA) in HEK293T cells; format: cell-based, human; conditions: for Tm of PRDM9 in cells (NALTSA): 0.1% DMSO, DMSO control Tm 52 ± 0.3 °C; for ∆Tm (°C): Fig. 5b, replicates; for Normalized_Signal: Fig. 5a, independent replicates
Method: Cells treated with 0.1% DMSO alone were used as a control.
Shown is the mean ± SEM of three biological replicates. Boxes indicate the mean values. P-values calculated using an unpaired Welch’s two-tailed t-test, *p-value = 0.017. Source data are provided as a Source Data file.
NALTSA assays were performed as previously described. Briefly, HEK293T cells were plated in 6-well plates at a density of 1.5 × 10^5 cells/mL. The following day, cells were transfected with 2 µg of C-terminally NanoLuc®-tagged PRDM9 (residues 135–285) with X-tremeGene HP DNA Transfection Reagent (Roche). Cells were incubated for 24 h, trypsinized and resuspended at 1.5 × 10^5 cells/mL in 1x PBS supplemented with protease inhibitors. Cell suspensions were incubated at 37 °C with 10 μM compound or 0.1% DMSO alone for 1 h. Sixty microliters of cells was dispensed per well of a 96-well PCR plate followed by heating across a temperature gradient for 3 min on a Mastercycler® thermal cycler (Eppendorf). After heating, samples were transferred to a 96-well white plastic plate (Corning) and Glo® Substrate (Promega) was added to each well at 1:1000 final dilution. NanoLuciferase signal was read at 450 nm (filter: 450 nm/BP 80 nm) on a CLARIOstar microplate reader (Mandel).

[2] = test system: panel of 108 enzymes and receptors; assay: Eurofins Panlabs customized panel profiling; format: binding
Histamine H3 = molecular target: T1, Histamine H3 (Homo sapiens, UniProt Q9Y5N1); assay: GPCR functional activity, GloSensor assay (agonist and antagonist mode); format: cell-based
T1 construct: NIMH Psychoactive Drug Screening Program, University of North Carolina at Chapel Hill
Source text: Supplementary Figure 5. Assessment of GPCR functional activity. GloSensor® assay was
profiles were generously provided by the National Institute of Mental Health’s (NIMH)
Psychoactive Drug Screening Program, (Contract # HHSN-271-2013-00017-C) directed by B.L.
Roth, University of North Carolina at Chapel Hill and Project Officer J. Driscoll at NIMH,
Bethesda, Maryland, USA. Further details available at https://pdspdb.unc.edu/pdspWeb/.
MOR stands for “Opiate µ receptor”. […]
[…] Source data are provided as a

Muscarinic M2 = molecular target: T2, Muscarinic M2 (Homo sapiens, UniProt P08172); assay: as above; format: cell-based; conditions: for M2 Tango Agonist, raw signal / M2 Tango Antagonist, raw signal: replicates 1-4
T2 construct: NIMH Psychoactive Drug Screening Program, University of North Carolina at Chapel Hill
T2 sequence (P08172 1-466): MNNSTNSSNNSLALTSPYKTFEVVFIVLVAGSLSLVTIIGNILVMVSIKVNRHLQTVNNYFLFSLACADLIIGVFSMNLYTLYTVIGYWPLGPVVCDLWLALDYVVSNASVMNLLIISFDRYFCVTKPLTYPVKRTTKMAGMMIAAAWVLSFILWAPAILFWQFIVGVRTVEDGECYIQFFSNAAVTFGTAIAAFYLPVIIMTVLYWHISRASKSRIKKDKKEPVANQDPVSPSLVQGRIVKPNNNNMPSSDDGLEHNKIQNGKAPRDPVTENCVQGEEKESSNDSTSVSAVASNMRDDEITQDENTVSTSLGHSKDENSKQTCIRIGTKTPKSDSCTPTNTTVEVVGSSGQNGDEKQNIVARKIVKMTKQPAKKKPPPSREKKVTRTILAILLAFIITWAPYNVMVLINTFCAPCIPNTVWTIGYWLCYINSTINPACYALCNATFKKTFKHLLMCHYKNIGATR

T1 sequence (Q9Y5N1 whole entry): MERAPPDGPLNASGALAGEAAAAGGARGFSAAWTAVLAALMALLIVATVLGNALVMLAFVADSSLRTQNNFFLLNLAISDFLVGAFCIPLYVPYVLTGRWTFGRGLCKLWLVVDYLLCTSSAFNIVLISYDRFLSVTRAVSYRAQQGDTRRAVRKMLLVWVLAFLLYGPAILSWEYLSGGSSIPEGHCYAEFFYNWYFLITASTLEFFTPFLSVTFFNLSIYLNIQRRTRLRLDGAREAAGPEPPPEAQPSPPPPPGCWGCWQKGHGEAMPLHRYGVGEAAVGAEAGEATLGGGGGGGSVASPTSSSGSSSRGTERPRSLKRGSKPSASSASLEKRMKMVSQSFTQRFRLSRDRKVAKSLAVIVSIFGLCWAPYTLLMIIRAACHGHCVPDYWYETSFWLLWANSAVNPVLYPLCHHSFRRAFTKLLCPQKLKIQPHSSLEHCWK

COc1cc(OC)cc(-c2noc(N3CCN(C)C4(CCN(c5ccccc5)CC4)C3)n2)c1 [MRK-740-NC]
Tm of PRDM9 in cells (NALTSA) ([1]; 10 µM compound, 1 h): 51.6 ± 0.3 °C | ∆Tm (°C) [1]: 0.2175 °C and -0.9409 °C and -0.4232 °C | Normalized_Signal ([1]; Temperature 41.9 °C): 1 | Normalized_Signal ([1]; Temperature 42.4 °C): 0.9008 and 0.9609 and 1.092 | Normalized_Signal ([1]; Temperature 43.6 °C): 0.8855 and 0.9556 and 0.9997 | Normalized_Signal ([1]; Temperature 45.5 °C): 0.873 and 0.8101 and 0.9461 | Normalized_Signal ([1]; Temperature 47.8 °C): 0.7977 and 0.6572 and 0.8375 | Normalized_Signal ([1]; Temperature 50.4 °C): 0.6003 and 0.5454 and 0.5984 | Normalized_Signal ([1]; Temperature 53.1 °C): 0.5018 and 0.4469 and 0.4089 | Normalized_Signal ([1]; Temperature 55.8 °C): 0.3624 and 0.3667 and 0.3326 | Normalized_Signal ([1]; Temperature 58.1 °C): 0.3387 and 0.2885 and 0.2383 | Normalized_Signal ([1]; Temperature 60.1 °C): 0.2284 and 0.1546 and 0.1556 | Normalized_Signal ([1]; Temperature 61.5 °C): 0.2018 and 0.1276 and 0.1034 | Normalized_Signal ([1]; Temperature 62.1 °C): 0.1991 and 0.1124 and 0.111

COc1cc(OC)cc(-c2noc(N3CCN(C)C4(CCN(c5ccnc(C)c5)CC4)C3)n2)c1 [MRK-740]
Panel of 108 enzymes and receptors: targets with significant (>50% at 10 µM) binding [2]: binding only to Adrenergic α2B, Histamine H3, Muscarinic M2 and Opiate µ receptors | Tm of PRDM9 in cells (NALTSA) ([1]; 10 µM compound, 1 h): 54 ± 0.2 °C | ∆Tm of PRDM9 in cells (NALTSA) ([1]; 10 µM compound, 1 h, versus DMSO): 2 °C | ∆Tm (°C) [1]: 2.141 °C and 1.141 °C and 2.73 °C | Normalized_Signal ([1]; Temperature 41.9 °C): 1 | Normalized_Signal ([1]; Temperature 42.4 °C): 1.082 and 0.9671 and 1.026 | Normalized_Signal ([1]; Temperature 43.6 °C): 1.044 and 1.056 and 1.097 | Normalized_Signal ([1]; Temperature 45.5 °C): 1.058 and 1.067 and 0.973 | Normalized_Signal ([1]; Temperature 47.8 °C): 1.041 and 0.9815 and 0.9273 | Normalized_Signal ([1]; Temperature 50.4 °C): 0.9323 and 0.8369 and 0.6881 | Normalized_Signal ([1]; Temperature 53.1 °C): 0.6552 and 0.5708 and 0.5431 | Normalized_Signal ([1]; Temperature 55.8 °C): 0.4561 and 0.4452 and 0.3801 | Normalized_Signal ([1]; Temperature 58.1 °C): 0.3081 and 0.2709 and 0.2289 | Normalized_Signal ([1]; Temperature 60.1 °C): 0.1968 and 0.1844 and 0.1466 | Normalized_Signal ([1]; Temperature 61.5 °C): 0.1518 and 0.1586 and 0.1205 | Normalized_Signal ([1]; Temperature 62.1 °C): 0.1417 and 0.1648 and 0.1053 | Functional activity (in words) (Histamine H3): no functional activity | Functional activity (in words) (Muscarinic M2; agonist and antagonist mode): no functional activity | M2 Tango Agonist, raw signal (Muscarinic M2; log[MRK-740] -4.52): 1230.87 and 608.6 and 2018.05 and 925.229 | M2 Tango Antagonist, raw signal (Muscarinic M2; log[MRK-740] -4.52): 1892.98 and 2737.32 and 2580.15 and 2057.03 | M2 Tango Agonist, raw signal (Muscarinic M2; log[MRK-740] -5): 1170.4 and 556.928 and 885.65 and 2239.04 | M2 Tango Antagonist, raw signal (Muscarinic M2; log[MRK-740] -5): 2819.92 and 2620.3 and 3056.24 and 3398.11 | M2 Tango Agonist, raw signal (Muscarinic M2; log[MRK-740] -5.52): 908.738 and 686.657 and 1321.02 and 1693.72 | M2 Tango Antagonist, raw signal (Muscarinic M2; log[MRK-740] -5.52): 11268.6 and 11778 and 17270.9 and 14621.3 | M2 Tango Agonist, raw signal (Muscarinic M2; log[MRK-740] -6): 612.997 and 2403.96 and 980.199 and 1368.29 | M2 Tango Antagonist, raw signal (Muscarinic M2; log[MRK-740] -6): 16800.4 and 13053.9 and 12658.1 and 16097 | M2 Tango Agonist, raw signal (Muscarinic M2; log[MRK-740] -6.52): 1008.78 and 553.629 and 1327.61 and 250.195 | M2 Tango Antagonist, raw signal (Muscarinic M2; log[MRK-740] -6.52): 19522.3 and 17447.6 and 21435.3 and 11694.3 | M2 Tango Agonist, raw signal (Muscarinic M2; log[MRK-740] -7): 841.674 and 505.256 and 883.451 and 1474.94 | M2 Tango Antagonist, raw signal (Muscarinic M2; log[MRK-740] -7): 19642.8 and 20162.6 and 13226 and 9835.52 | M2 Tango Agonist, raw signal (Muscarinic M2; log[MRK-740] -7.52): 1908.11 and 681.16 and 1388.08 and 3242.84 | M2 Tango Antagonist, raw signal (Muscarinic M2; log[MRK-740] -7.52): 21785.3 and 16504.3 and 11050.6 and 14699.4 | M2 Tango Agonist, raw signal (Muscarinic M2; log[MRK-740] -8): 903.241 and 865.861 and 1293.53 and 833.978 | M2 Tango Antagonist, raw signal (Muscarinic M2; log[MRK-740] -8): 17075.8 and 13974.2 and 18134.9 and 13350 | M2 Tango Agonist, raw signal (Muscarinic M2; log[MRK-740] -8.52): 3423.68 and 634.694 and 1797.23 and 346.523 | M2 Tango Antagonist, raw signal (Muscarinic M2; log[MRK-740] -8.52): 19019.9 and 15122.7 and 15169.2 and 14917.8 | M2 Tango Agonist, raw signal (Muscarinic M2; log[MRK-740] -9): 2386.23 and 137.073 and 3399.79 and 858.202 | M2 Tango Antagonist, raw signal (Muscarinic M2; log[MRK-740] -9): 17183.9 and 21120.4 and 14888.7 and 14358.1 | M2 Tango Agonist, raw signal (Muscarinic M2; log[MRK-740] -9.52): 623.448 and 315.598 and 869.448 and 1092.96 | M2 Tango Antagonist, raw signal (Muscarinic M2; log[MRK-740] -9.52): 22350.3 and 15858.2 and 16819.1 and 15951.3 | M2 Tango Agonist, raw signal (Muscarinic M2; log[MRK-740] -10): 2109.3 and 935.517 and 704.979 and 1937.8 | M2 Tango Antagonist, raw signal (Muscarinic M2; log[MRK-740] -10): 21021.6 and 16763.8 and 20216.2 and 13987.5 | M2 Tango Agonist, raw signal (Muscarinic M2; log[MRK-740] -10.52): 1187.14 and 1805.66 and 1171.68 and 1424.71 | M2 Tango Antagonist, raw signal (Muscarinic M2; log[MRK-740] -10.52): 18293 and 14853.8 and 17839.5 and 22558.2 | M2 Tango Agonist, raw signal (Muscarinic M2; log[MRK-740] -11): 648.751 and 5178.11 and 914.431 and 991.746 | M2 Tango Antagonist, raw signal (Muscarinic M2; log[MRK-740] -11): 17836.6 and 15099.5 and 17153.4 and 15587.9 | M2 Tango Agonist, raw signal (Muscarinic M2; log[MRK-740] -11.52): 2954.16 and 1388.16 and 1004.4 and 790.728 | M2 Tango Antagonist, raw signal (Muscarinic M2; log[MRK-740] -11.52): 13959.9 and 19316.4 and 14923.6 and 25119.7 | M2 Tango Agonist, raw signal (Muscarinic M2; log[MRK-740] -12): 606.579 and 917.242 and 726.065 and 3353.4 | M2 Tango Antagonist, raw signal (Muscarinic M2; log[MRK-740] -12): 15989 and 24141.3 and 15762.3 and 20389.2
